These results are taken from PubChem BioAssay AID256 (DTP/NCI, 2004).

“And” between values parts separate entries of the source, which are not always exact repeats. Equal values may be shown once. Inconclusive results and toxic doses are left out.

This experiment has as its system CD2F1 mice, L1210 leukemia ip, survival T/C. Briefly: NCI In Vivo Anticancer Drug Screen. Data for tumor model L1210 Leukemia (intraperitoneal) in CD2F1 (CDF1) mice. Particulars: endpoint: mean survival time, higher = longer survival. The procedure, abridged:
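Compound-dosed mice with transplantable tumor versus matched vehicle controls; endpoint ratio T/C reported.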

Where [1] appears, read: dose: 100.0 mg/kg/injection, schedule: Q04DX003 (ip), vehicle: saline with Tween-80.
The mark [2] stands for this setting: dose: 200.0 mg/kg/injection, schedule: Q04DX003 (ip), vehicle: saline with Tween-80.
[3] abbreviates: dose: 400.0 mg/kg/injection, schedule: Q04DX003 (ip), vehicle: saline with Tween-80.
Setting [4] is: dose: 50.0 mg/kg/injection, schedule: Q01DX009 (ip), vehicle: saline with Tween-80.
Where [5] appears, read: dose: 100.0 mg/kg/injection, schedule: Q01DX009 (ip), vehicle: saline with Tween-80.
The mark [6] stands for this setting: dose: 12.5 mg/kg/injection, schedule: Q01DX009 (ip), vehicle: saline with Tween-80.
Setting [7] is: dose: 25.0 mg/kg/injection, schedule: Q01DX009 (ip), vehicle: saline with Tween-80.
[8] abbreviates: dose: 200.0 mg/kg/injection, schedule: Q01DX009 (ip), vehicle: saline with Tween-80.
Setting [9] is: dose: 400.0 mg/kg/injection, schedule: Q01DX009 (ip), vehicle: saline with Tween-80.

On to `NCC(Br)CO` (configuration not stated), for which the T/C was 95 % of control (dose: 31.3 mg/kg/injection, schedule: Q01DX001 (ip), vehicle: other); 95 % of control (dose: 62.5 mg/kg/injection, schedule: Q01DX001 (ip), vehicle: other); 100 % of control (dose: 125.0 mg/kg/injection, schedule: Q01DX001 (ip), vehicle: other); 101 % of control (dose: 250.0 mg/kg/injection, schedule: Q01DX001 (ip), vehicle: other); 97 % of control (dose: 500.0 mg/kg/injection, schedule: Q01DX001 (ip), vehicle: other).

For `CC(C)(C)C(=O)C#Cc1ccccc1`, the T/C is, setting by setting: (dose: 25.0 mg/kg/injection, schedule: Q01DX009 (ip), vehicle: saline) 94 % of control; (dose: 50.0 mg/kg/injection, schedule: Q01DX009 (ip), vehicle: saline) 97 % of control.

Consider `COC(=O)C(=C(C)C)[N+](=O)[O-]`, for which the T/C by setting is: under setting [1], 91 % of control; under setting [2], 95 % of control; under setting [3], 95 % of control.

Turning to `O=C(O)C1(c2ccccc2)CC1`, the T/C was 88 % of control (dose: 100.0 mg/kg/injection, schedule: Q01DX009 (ip), vehicle: saline sonified); 97 % of control under setting [1]; 92 % of control (dose: 200.0 mg/kg/injection, schedule: Q01DX009 (ip), vehicle: saline sonified); 97 % of control under setting [2]; 94 % of control (dose: 400.0 mg/kg/injection, schedule: Q01DX009 (ip), vehicle: saline sonified); 110 % of control under setting [3].

As for `COC(=O)c1cncn1C(C)c1cccc2ccccc12` (configuration not stated), the T/C under setting [1] is 108 % of control and the T/C under setting [2] is 100 % of control.

As to `C=C(C)C(=O)OC1C/C(CO)=C\C(O)C/C(C)=C/C2OC(=O)C(=C)C21` (configuration not stated), the T/C runs as follows: (dose: 1.25 mg/kg/injection, schedule: Q01DX009 (ip), vehicle: saline + alcohol) 103 % of control and 104 % of control; (dose: 2.5 mg/kg/injection, schedule: Q01DX009 (ip), vehicle: saline + alcohol) 116 % of control and 101 % of control; (dose: 3.75 mg/kg/injection, schedule: Q01DX009 (ip), vehicle: saline + alcohol) 114 % of control; (dose: 5.0 mg/kg/injection, schedule: Q01DX009 (ip), vehicle: saline + alcohol) 113 % of control and 123 % of control; (dose: 7.5 mg/kg/injection, schedule: Q01DX009 (ip), vehicle: saline + alcohol) 114 % of control; (dose: 10.0 mg/kg/injection, schedule: Q01DX009 (ip), vehicle: saline + alcohol) 110 % of control. The T/C is, setting by setting: (dose: 15.0 mg/kg/injection, schedule: Q01DX009 (ip), vehicle: saline + alcohol) 106 % of control; (dose: 20.0 mg/kg/injection, schedule: Q01DX009 (ip), vehicle: saline + alcohol) 122 % of control; (dose: 30.0 mg/kg/injection, schedule: Q01DX009 (ip), vehicle: saline + alcohol) 120 % of control; (dose: 40.0 mg/kg/injection, schedule: Q01DX009 (ip), vehicle: saline + alcohol) 97 % of control.

For `CC1OC(O[C@@H]2C=C3CC[C@@H]4[C@H](CC[C@]5(C)[C@@H](c6ccc(=O)oc6)CC[C@]45O)[C@@]3(C)CC2)C(O)C(O)C1O` (some centres not stated), the T/C (dose: 1.25 mg/kg/injection, schedule: Q01DX001 (sc), vehicle: steriod suspending solution) was 101 % of control; the T/C (dose: 1.25 mg/kg/injection, schedule: Q01DX009 (sc), vehicle: steriod suspending solution) was 94 % of control; the T/C (dose: 2.5 mg/kg/injection, schedule: Q01DX001 (sc), vehicle: steriod suspending solution) was 101 % of control; the T/C (dose: 2.5 mg/kg/injection, schedule: Q01DX009 (sc), vehicle: steriod suspending solution) was 97 % of control; the T/C (dose: 2.5 mg/kg/injection, schedule: Q04DX003 (sc), vehicle: steriod suspending solution) is 93 % of control; the T/C (dose: 5.0 mg/kg/injection, schedule: Q01DX001 (sc), vehicle: steriod suspending solution) was 98 % of control. Also, the T/C runs as follows: (dose: 5.0 mg/kg/injection, schedule: Q01DX009 (sc), vehicle: steriod suspending solution) 95 % of control; (dose: 5.0 mg/kg/injection, schedule: Q04DX003 (sc), vehicle: steriod suspending solution) 95 % of control; (dose: 10.0 mg/kg/injection, schedule: Q01DX001 (sc), vehicle: steriod suspending solution) 101 % of control; (dose: 10.0 mg/kg/injection, schedule: Q01DX009 (sc), vehicle: steriod suspending solution) 95 % of control; (dose: 10.0 mg/kg/injection, schedule: Q04DX003 (sc), vehicle: steriod suspending solution) 112 % of control; (dose: 20.0 mg/kg/injection, schedule: Q01DX001 (sc), vehicle: steriod suspending solution) 103 % of control. The T/C is, setting by setting: (dose: 20.0 mg/kg/injection, schedule: Q04DX003 (sc), vehicle: steriod suspending solution) 101 % of control; (dose: 40.0 mg/kg/injection, schedule: Q04DX003 (sc), vehicle: steriod suspending solution) 95 % of control.

For the compound `Cc1ccc(CCl)cc1`, the T/C is 115 % of control under setting [4] and 92 % of control under setting [5].

Consider `Cc1ccc(S(=O)(=O)NC(=S)S)cc1`, for which the T/C runs as follows: under setting [6], 102 % of control and 110 % of control; under setting [7], 115 % of control and 103 % of control; under setting [4], 110 % of control and 112 % of control; under setting [5], 113 % of control and 103 % of control; under setting [8], 105 % of control and 111 % of control; under setting [9], 105 % of control and 109 % of control.

For `Cc1ccc(S(=O)(=O)Nc2c([N+](=O)[O-])cc([N+](=O)[O-])c3ccccc23)cc1`, the T/C is 104 % of control (dose: 6.25 mg/kg/injection, schedule: Q01DX009 (ip), vehicle: saline with Tween-80); 100 % of control (dose: 6.25 mg/kg/injection, schedule: Q04DX003 (ip), vehicle: saline with Tween-80); 100 % of control under setting [6]; 96 % of control (dose: 12.5 mg/kg/injection, schedule: Q04DX003 (ip), vehicle: saline with Tween-80); 103 % of control under setting [7]; 100 % of control (dose: 25.0 mg/kg/injection, schedule: Q04DX003 (ip), vehicle: saline with Tween-80).

Turning to `OC(Cc1nc2ccccc2[nH]1)c1nc2ccccc2[nH]1` (configuration not stated), the T/C (dose: 50.0 mg/kg/injection, schedule: Q01DX009 (ip), vehicle: Klucel (hydroxypropylcellulose) (HPC)) is 104 % of control; the T/C (dose: 100.0 mg/kg/injection, schedule: Q01DX009 (ip), vehicle: Klucel (hydroxypropylcellulose) (HPC)) was 97 % of control; the T/C (dose: 200.0 mg/kg/injection, schedule: Q01DX009 (ip), vehicle: Klucel (hydroxypropylcellulose) (HPC)) was 101 % of control.

For the compound `NC(N)=N/N=C/c1cc(Br)ccc1O`, the T/C reads like this: (dose: 37.5 mg/kg/injection, schedule: Q01DX009 (ip), vehicle: saline) 105 % of control; (dose: 37.5 mg/kg/injection, schedule: Q04DX003 (ip), vehicle: saline) 110 % of control; (dose: 75.0 mg/kg/injection, schedule: Q04DX003 (ip), vehicle: saline) 114 % of control; (dose: 150.0 mg/kg/injection, schedule: Q04DX003 (ip), vehicle: saline) 108 % of control.

Take `[Cl][Pt+2][Cl].[NH-]C(C(=O)O)C([NH-])C(=O)O` (configuration not stated): the T/C is 100 % of control (dose: 50.0 mg/kg/injection, schedule: Q04DX003 (ip), vehicle: saline); 106 % of control (dose: 100.0 mg/kg/injection, schedule: Q04DX003 (ip), vehicle: saline); 104 % of control (dose: 200.0 mg/kg/injection, schedule: Q04DX003 (ip), vehicle: saline).

Take `O=C(CNC(=O)NCc1ccco1)NNC(=O)Nc1ccc(Cl)c([N+](=O)[O-])c1`: the T/C was 94 % of control under setting [5], 87 % of control under setting [8] and 91 % of control under setting [9].

With `O=S(=O)(O)N=Nc1ccc(OCc2ccccc2)cc1`, the T/C is 100 % of control (dose: 100.0 mg/kg/injection, schedule: Q01DX001 (ip), vehicle: saline); 100 % of control (dose: 200.0 mg/kg/injection, schedule: Q01DX001 (ip), vehicle: saline); 97 % of control (dose: 400.0 mg/kg/injection, schedule: Q01DX001 (ip), vehicle: saline).

In the case of `CN(C)N=Nc1ccccc1`, the T/C is 158 % of control (dose: 37.5 mg/kg/injection, schedule: Q01DX009 (ip), vehicle: Klucel (hydroxypropylcellulose) (HPC)) and 106 % of control (dose: 75.0 mg/kg/injection, schedule: Q01DX009 (ip), vehicle: Klucel (hydroxypropylcellulose) (HPC)).

For the compound `O=Cc1ccc(O)c(Cl)c1`, the T/C is 96 % of control (dose: 100.0 mg/kg/injection, schedule: Q01DX001 (ip), vehicle: saline with Tween-80); 104 % of control (dose: 200.0 mg/kg/injection, schedule: Q01DX001 (ip), vehicle: saline with Tween-80); 93 % of control (dose: 400.0 mg/kg/injection, schedule: Q01DX001 (ip), vehicle: saline with Tween-80).
